According to PMC11053687, “Synthesis and Pharmacological Characterization of New Photocaged Agonists for Histamine H3 and H4 Receptors” (Pharmaceuticals, 2024):
Values after ≈ are worked out from the molar mass of the structure shown. Read-outs that look alike come from different tables or passages of the source. Each block holds one compound with its values, some of them ahead of it.

What was measured:
human H4R = molecular target: T1, human H4R (Homo sapiens, UniProt Q9H3N8); assay: [3H]histamine competition binding, membranes of HEK293T cells transiently expressing H4R
T1 construct: expressed in transfected cells; host or cells: HEK293T (transient, PEI); membranes
Experimental: (§1) Both GPCRs were transiently expressed in HEK293T cells.
(§2) Membranes were collected from HEK293T cells transiently transfected with H3R or H4R by PEI method. In brief, 2 million HEK293T cells were seeded into a 10 cm dish one day before transfection. The next day, the cells were transfected with 2.5 μg cDNA encoding H3R (GenBank accession number AF140538) or H4R (GenBank accession number AY136745) supplemented with 2.5 μg empty pcDEF3 [45] plasmid using 20 μg PEI. Two days after transfection, the transfected HEK293T cells were detached using ice-cold PBS, and the membrane pellets were subsequently collected by centrifuging at 1932× g at 4 °C for 10 min.
For competition binding assays, the tested compounds were pre-irradiated to reach the uncaged state. […] After drying for 30 min at 55 °C, the radioactivity remaining on the filters was quantified using a Microbeta Wallac Trilux scintillation counter, following the addition of scintillation liquid with a two-hour delay.
All data are shown as mean ± S.D. from three individual experiments performed in triplicate. Figures were generated and data analyzed by Prism 9. […] In FRET-EPAC assays, the ligand-induced cAMP inhibition was quantified by FRET ratios, dividing the FRET signal at 530 nm by the signal at 480 nm. […]

[1] = UV-Vis absorption in Tris-HCl buffer; format: physicochemical; conditions: Tris-HCl buffer (50 mM, pH 7.4)
Experimental: Next, the photochemical properties of the caged VUF25657 and VUF25678 were investigated. […] Based on the photochemical stability results in Figure S2, photo characterizations of VUF25657 and VUF25678 were performed under red LED light. Due to the low absorbance of immepip and 4-methylhistamine at 230 and 254 nm, a quantitative analysis method based on mass (MS) detection was employed. First, calibration curves of monitored compounds with the corresponding reference compound of the same molecular weight were built (Figure S3). Then, after illumination, the reference compounds were added to LCMS samples as internal standards. Based on the MS signal areas, the concentrations of caged compounds and parent compounds could be monitored. In Tris-HCl buffer (50 mM, pH 7.4), the absorption maximum (λmax) was determined to be 551 nm for VUF25657 (Figure 1A) and 546 nm for VUF25678 (Figure S4A). […] After 180 s of illumination, the concentration of immepip reached 0.92 μM, amounting to 29% uncaging efficiency. […]
Figure 1 Photo-uncaging followed by UV–Vis (ultraviolet-visible) and LC–MS analysis. (A) VUF25657 (3.2 μM) was illuminated under 560 nm in Tris-HCl buffer (50 mM, pH 7.4)/1% DMSO at room temperature and a UV–Vis spectrum was measured at intervals. […]
measured at intervals; (B) […] (3.2 μM) was illuminated under green LED light in Tris-HCl buffer (50 […]

H3R [2] = molecular target: T2, H3R (Homo sapiens, UniProt Q9Y5N1); assay: [3H]NAMH competition binding, membranes of HEK293T cells transiently expressing H3R; design: expressed in transfected cells; host or cells: HEK293T (transient, PEI); membranes
Experimental: as §1, §2
For competition binding assays, the tested compounds were pre-irradiated to reach the uncaged state. In brief, 0.3 mM stock of photocaged ligand (dissolved in DMSO) was divided into two samples, one of which was subsequently diluted in Tris-HCl buffer (50 mM, pH 7.4) to 3 μM and then irradiated by 560 nm to reach the uncaged state, as confirmed by LC–MS, and the other sample was kept in dark to retain its caged state. The prepared membrane pellets expressing H3R or H4R were resuspended in Tris-HCl buffer (50 mM, pH 7.4) and disrupted by 5 s sonication to make membrane suspension. Next, all the following handling was performed under near-infrared light. […] Following one hour of incubation with continuous shaking at 225 rpm at 25 °C, the reaction was terminated by transferring the mixture to GF/C filter plates that were pre-soaked with a solution containing 0.5% PEI and washed with cold Tris-HCl buffer. After drying for 30 min at 55 °C, the radioactivity remaining on the filters was quantified using a Microbeta Wallac Trilux scintillation counter, following the addition of scintillation liquid with a two-hour delay.
(§3) All data are shown as mean ± S.D. from three individual experiments performed in triplicate. Figures were generated and data analyzed by Prism 9. In radioligand binding assays, the competition binding curves were fitted by ‘one-site—Fit Ki’ to obtain the equilibrium dissociation constants of unlabeled ligands (Ki) by Cheng-Prusoff equation [46]. In FRET-EPAC assays, the ligand-induced cAMP inhibition was quantified by FRET ratios, dividing the FRET signal at 530 nm by the signal at 480 nm. The response was represented as ΔFRET ratios, obtained by the analysis of ‘Fractional difference: (Value—Baseline)/Baseline’. Then the concentration–response curves were fitted using the model: ‘log(agonist) vs. response (three parameters)’ to obtain potency (pEC50).
Figure 2 Displacement binding curves of parent, caged, and uncaged ligands for H3R (A) and H4R (B). […] Caged ligands were either kept in dark or pre-irradiated at 560 nm for 3 min for VUF25657 and 5 min for VUF25678 to achieve the uncaged state. Data shown are mean ± S.D. from three or four independent experiments, each performed in triplicate.

H3R [3] = molecular target: T2, H3R; assay: cAMP inhibition by FRET-EPAC biosensor in HEK293-EPAC cells stably expressing H3R; format: cell-based; design: expressed in transfected cells; host or cells: HEK293 cells stably expressing EPAC-cAMP FRET biosensor and H3R; conditions: for EC50: inhibition of cAMP induced by 10 nM isoprenaline, FRET after 20 min
Experimental: H3R primarily couples to Gαi protein, which upon activation causes a decrease in intracellular cAMP levels via the inhibition of adenylate cyclase. Therefore, the HEK-EPAC cells were pre-treated with 10 nM of the beta2 adrenergic receptor (β2AR) agonist isoprenaline before H3R stimulation to enhance the basal intracellular cAMP levels via β2AR-Gαs activation. As anticipated, the H3R selective agonist immepip reduced the isoprenaline-induced cAMP accumulation, as detected by an increased FRET (fluorescence resonance energy transfer) signal in the EPAC (exchange protein directly activated by cAMP) biosensor (Figure 3A).
HEK293T cells (ATTC, CRL-1573) were cultured in DMEM supplemented with 10% FBS and 1% P/S in a humidified incubator at 37 °C with 5% CO2. The HEK293 cell line stably expressing an EPAC-cAMP FRET biosensor was kindly provided by Dr. M. Zimmermann (Interax Biotech, Basal, Switzerland). HEK293-EPAC cells stably co-expressing the H3R (GenBank accession number NM_007232.3) were generated as previously described.
EPAC-H3R cells were seeded into black 96-well plates with 50,000 cells per well one day before the experiment. The next day, the culture medium was replaced with HBSS. Subsequently, 10 nM isoprenaline (dissolved in HBSS supplemented with 20 mM thiourea) was added for 10 min incubation to elevate basal cAMP levels. Fluorescence resonance energy transfer (FRET) measurements were recorded by CLARIOstar plate reader in real-time or at 20 min after ligand stimulation.
as §3
Figure 3 Optical modulation of VUF25657-induced cAMP inhibition in EPAC-H3R cells. Real time modulation of isoprenaline-induced cAMP acumination in HEK-EPAC cells by 1 μM immepip (A). Modulation of isoprenaline-induced cAMP acumination in HEK-EPAC cells by increasing concentrations of VUF25657 (B). HEK-EPAC cells stably expressing H3R were pre-stimulated with 10 nM isoprenaline for 10 min before ligand addition. The FRET signal of the EPAC-sensor was measured after 20 min treatment of indicated ligands. VUF25657 was either kept in dark or pre-irradiated at 560 nm for 3 min to release the BODIPY cage. Data are mean ± S.D. from four independent experiments performed, each in triplicate.

[4] = Photo-uncaging at 560 nm followed by LC-MS with internal standard; format: physicochemical; conditions: VUF25657 3.2 μM in Tris-HCl buffer
Experimental: Next, the photochemical properties of the caged VUF25657 and VUF25678 were investigated. […] Based on the photochemical stability results in Figure S2, photo characterizations of VUF25657 and VUF25678 were performed under red LED light. Due to the low absorbance of immepip and 4-methylhistamine at 230 and 254 nm, a quantitative analysis method based on mass (MS) detection was employed. First, calibration curves of monitored compounds with the corresponding reference compound of the same molecular weight were built (Figure S3). Then, after illumination, the reference compounds were added to LCMS samples as internal standards. Based on the MS signal areas, the concentrations of caged compounds and parent compounds could be monitored. In Tris-HCl buffer (50 mM, pH 7.4), the absorption maximum (λmax) was determined to be 551 nm for VUF25657 (Figure 1A) and 546 nm for VUF25678 (Figure S4A). […] After 180 s of illumination, the concentration of immepip reached 0.92 μM, amounting to 29% uncaging efficiency. Further illumination led to a decreased immepip concentration (for example, 0.53 μM at 20 min). One potential explanation for this could be the reaction of immepip with side products or intermediates formed during the uncaging process.
Figure 1 Photo-uncaging followed by UV–Vis (ultraviolet-visible) and LC–MS analysis. (A) VUF25657 (3.2 μM) was illuminated under 560 nm in Tris-HCl buffer (50 mM, pH 7.4)/1% DMSO at room temperature and a UV–Vis spectrum was measured at intervals. Only the 350–750 nm region is shown; (B) VUF25657 (3.2 μM) was illuminated under green LED light in Tris-HCl buffer (50 mM, pH 7.4)/1% DMSO at 37 °C and LC–MS analysis was performed at different time points using an internal standard.

[5] = Nephelometry (aqueous solubility); format: physicochemical; conditions: 50 mM Tris-HCl buffer with 1% DMSO, pH 7.4, aqueous buffer, kinetic from dmso stock, in the dark, read-out: aqueous solubility (limit)
H3R [6] = molecular target: T2, H3R; design: expressed in transfected cells; host or cells: HEK293 cells stably expressing EPAC-cAMP FRET biosensor and H3R; method as in PMID 30249614; conditions: saturation binding of the radioligand to H3R; cited from earlier work
[7] = after 180 s of illumination at 560 nm

T2 sequence (Q9Y5N1 whole entry): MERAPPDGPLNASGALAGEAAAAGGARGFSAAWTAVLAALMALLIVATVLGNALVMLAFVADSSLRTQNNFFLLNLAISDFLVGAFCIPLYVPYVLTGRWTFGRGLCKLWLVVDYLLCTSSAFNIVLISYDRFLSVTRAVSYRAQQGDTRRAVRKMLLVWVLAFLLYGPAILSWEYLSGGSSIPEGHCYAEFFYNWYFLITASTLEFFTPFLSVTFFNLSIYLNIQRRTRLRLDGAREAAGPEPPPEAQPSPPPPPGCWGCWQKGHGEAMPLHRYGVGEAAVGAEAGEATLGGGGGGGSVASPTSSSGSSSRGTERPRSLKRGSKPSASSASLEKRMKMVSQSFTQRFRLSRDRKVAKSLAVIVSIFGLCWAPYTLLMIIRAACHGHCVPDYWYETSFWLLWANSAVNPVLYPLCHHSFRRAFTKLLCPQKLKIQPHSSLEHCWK

SMILES: Cc1[nH]cnc1CCN [4-methylhistamine, 2-(5-methyl-1H-imidazol-4-yl)ethan-1-amine, reference compound]
pKi +560 nm (human H4R; H4R, displacement of 4 nM [3H]histamine, pre-irradiated at 560 nm (5 min for VUF25678)): 7.2 ± 0.1 (3)

absorption maximum (λmax) [1]: 551 nm
melting point: 148.7 to 150.7 °C
Ki (H3R [2]; H3R, displacement of 2 nM [3H]NAMH, compound kept in dark (caged state), read-out: pKi In Dark (converted)): 50.1 nM
decrease in affinity for H3R compared with immepip (H3R [2]; caged state (dark) vs parent immepip): 125 fold
increase in H3R affinity after illumination in comparison to caged state (H3R [2]; illumination at 560 nm vs dark): 12 fold
decrease in potency of cAMP inhibition compared with immepip (H3R [3]; caged state (dark) vs parent immepip, listed as 5 (VUF25657)): > 100 fold
EC50 (H3R [3]; kept in dark, read-out: pEC50 In Dark (converted)): 10 nM
higher potency of cAMP inhibition after irradiation than caged state (H3R [3]; irradiation at 560 nm vs dark): 20 fold
concentration of immepip released [4, 7]: 920 nM
uncaging efficiency [4, 7]: 29%
concentration of immepip released ([4]; illumination at 560 nm, at 20 min): 530 nM
solubility [5]: 3.2 µM (≈ 1.68 µg/mL)
SMILES: CCC1=C(C)C2=C(COC(=O)N3CCC(Cc4c[nH]cn4)CC3)c3c(C)c(CC)c(C)n3[B-](F)(F)[N+]2=C1C [VUF25657, (2,8-Diethyl-5,5-difluoro-1,3,7,9-tetramethyl-5H-4λ^4,5λ^4-dipyrrolo [1,2-c:2′,1′-f][1,3,2]diazaborinin-10-yl)methyl 4-((1H-imidazol-4-yl)methyl)piperidine-1-carboxylate]

SMILES: CNCCc1cnc[nH]1 [[^3H]NAMH, N-α-[methyl-^3H] histamine]
Kd (H3R [6]): 1.37 nM

absorption maximum (λmax) [1]: 546 nm
melting point: 108.8 to 116.3 °C
reduction in affinity for H4R on caging (human H4R; caged compound vs parent 4-methylhistamine): 10–100 fold
solubility [5]: 3.2 µM (≈ 1.55 µg/mL)
SMILES: CCC1=C(C)C2=C(COC(=O)NCCc3nc[nH]c3C)c3c(C)c(CC)c(C)n3[B-](F)(F)[N+]2=C1C [VUF25678, (2,8-Diethyl-5,5-difluoro-1,3,7,9-tetramethyl-5H-4λ^4,5λ^4-dipyrrolo [1,2-c:2′,1′-f][1,3,2]diazaborinin-10-yl)methyl (2-(5-methyl-1H-imidazol-4-yl)ethyl)carbamate]

SMILES: c1nc(CC2CCNCC2)c[nH]1 [immepip, 4-((1H-imidazol-4-yl)methyl)piperidine, reference compound]
pKi In Dark (H3R [2]; H3R, displacement of 2 nM [3H]NAMH, compound kept in dark (caged state)): 9.4 ± 0.2 (4)
pKi +560 nm (H3R [2]; H3R, displacement of 2 nM [3H]NAMH, pre-irradiated at 560 nm (3 min for VUF25657)): 9.4 ± 0.3 (4)
EC50 (H3R [3]; pEC50 +560 nm, pre-irradiated at 560 nm for 3 min): 0.0631 nM
EC50 (H3R [3]; pEC50 In Dark, kept in dark): 0.0316 nM
